Test results reported in patent US20090298752A1, “APLIDINE TREATMENT OF CANCERS” (PHARMA MAR, S.A., priority 1999, published 2009).
Where “and” joins values, the source holds several entries; their conditions need not be identical. Equal values may be shown once.

What was measured:
[1] = Phase I, 24 h infusion weekly x3 q4wk: toxicity and pharmacokinetics; format: in vivo, human
Experimental: A phase I trial was performed using 24 hour infusion weekly×3 followed by 1 wk rest. 32 patients (median age 58 yrs, median ECOG 1) with advanced, previously treated solid tumours have been treated. They have received 64 courses (median/pt: 2 (1-6)) across 8 dose levels: 133 (3 pts), 266 (3 pts), 532 (3 pts), 1000 (3 pts), 2000 (3 pts), 3000 (3 pts), 4500 (4 pts) and 3750 mcg/m^2/wk (10 pts). 2 out of 3 evaluable patients had DLT at 4500 mcg/m^2/wk: grade (G) 4 reversible neuromuscular toxicity (biopsy prevent type II muscular atrophy) and G4 CK increase (1 pt), and transient G3 transaminitis (1 pt). Other toxicities included G 1-2 malaise (most patients treated at ≧3000 mcg/m^2/wk), muscle cramps, G 1-2 emesis (responsive to antiemetics) and injection site reaction (very common and concentration-dependent). All patients have been sampled for PK analysis by a LC/MS/MS method. Pharmacokinetics are linear and the profiles fit a 2 compartment open model. […] Maintained plasma levels >1 ng/ml (active in vitro) were obtained at doses ≧3000 mcg/m^2. […] Four additional patients had minor responses or stable disease for >4 months. […] The recommended dose for future trials, 3750 mcg/m^2/wk×3, administered through a central vein catheter, is feasible and associated with mild toxicity.
Plasma aplidine concentrations were determined by liquid chromatography/tandem mass spectography with a limit of quantitation of 0.25 ng/mL and a broad linear range up to 16.00 ng/mL
A total of 15 samples were drawn up to 24 hours after the end of infusion

[2] = Clinical pharmacokinetics across phase I schedules; format: in vivo, human; conditions: plasma PK, initial results
Experimental: […] intravenous schedules are under phase I evaluation: weekly 24 h infusion, biweekly 24 h infusion and 5 consecutive days 1 h infusion every 3 weeks. APL blood concentrations are analysed by liquid chromatography-tandem mass spectrometry. […] An open 2-compartment model fits appropriately most profiles after 24 h infusion. For 1 h infusions a 3-compartment model provides a better fit in most cases. Obtained plasma levels are known to be active in vitro. Evaluation of additional patients, and a comparison of blood cells and plasma PK is ongoing.

[3] = system: cell cycle; conditions: flow cytometric analysis; cited from earlier work
[4] = Phase I, 1 h weekly infusion x3 q4wk: toxicity and pharmacokinetics; format: in vivo, human; parameters: CL: unit not given here
From the text: Adult patients with advanced disease, PS<3, and appropriate organ function are considered eligible; patients receive aplidine wk×3/q^4 wks. 24 solid tumour patients have been entered: median (m) age 55 y, m ECOG=1, 15/24 patients treated with =>2 treatment cycles. Seven dose levels (DL) from 133 mcg/m^2/wk to 2700 mcg/m^2/wk have been assessed: 102 infusions are evaluable for toxicity (tox). […] At 2700 mcg/m^2/wk (4 pts), 1 had G3 hiperbilirrubinemia that has been considered to be dose limiting and therefore 2700 mcg/m^2/wk DL is being expanded. […] Plasma levels >1 ng/ml 24 hours after infusion are reachable form 1800 mcg/m^2/wk. […] Aplidine appears to be clinically feasible at pharmacologically appropriate dose levels.
Aplidine was administered as a 1 hour weekly×3 every four weeks

[5] = DL V, 2000 mcg/m^2/wk, 3 patients
[6] = DL VI, 3000 mcg/m^2/wk, 3 patients
[7] = DL VII (MTD), 4500 mcg/m^2/wk, 4 patients
[8] = DL VIII (RD), 3750 mcg/m^2/wk, 13 patients
[9] = 3-compartment model, preliminary

**Q.** Which results are given for aplidine?
**A.** evaluable patients with DLT ([1]; 4500 mcg/m^2/wk): 2 out of 3; Recommended Dose ([1]; 24 h infusion weekly x3 q4wk): 3750 μg/m^2/wk×3; Inj. Site reaction G2 (worst toxicity per patient) ([1]; DL II, 266 mcg/m^2/wk, 3 patients): 1; Asthenia G2 (worst toxicity per patient) ([1]; DL III, 532 mcg/m^2/wk, 3 patients): 1; Inj. Site reaction G2 (worst toxicity per patient) ([1]; DL IV, 1000 mcg/m^2/wk, 3 patients): 1; Inj. Site reaction G2 (worst toxicity per patient) [1, 5]: 1; Nausea G2 (worst toxicity per patient) [1, 5]: 1; Asthenia G2 (worst toxicity per patient) [1, 6]: 1; Asthenia G3 (worst toxicity per patient) [1, 6]: 1; Inj. Site reaction G2 (worst toxicity per patient) [1, 6]: 1; Nausea G3 (worst toxicity per patient) [1, 6]: 1; Asthenia G2 (worst toxicity per patient) [1, 7]: 1; CPK elevation G4 (worst toxicity per patient) [1, 7]: 1; Inj. Site reaction G2 (worst toxicity per patient) [1, 7]: 1; Myositis G3 (worst toxicity per patient) [1, 7]: 1; Transaminitis G3 (worst toxicity per patient) [1, 7]: 1; Asthenia G2 (worst toxicity per patient) [1, 8]: 3; Hypersensitivity G3 (worst toxicity per patient) [1, 8]: 1; Inj. Site reaction G2 (worst toxicity per patient) [1, 8]: 3; Nausea G2 (worst toxicity per patient) [1, 8]: 2; Transaminitis G3 (worst toxicity per patient) [1, 8]: 2; Transaminitis G4 (worst toxicity per patient) [1, 8]: 1; plasma levels ([1]; DLs 1000 and 2000 mcg/m^2/w): ~1 ng/mL; dose limiting toxicities (DLTs) ([1]; Example 3: 16 patients, 133-3000 mcg/m^2/wk x3): No dose limiting toxicities; Maximum Tolerated Dose ([1]; Example 4): 4500 μg/m^2/wk×3; elimination t ½ ([1]; Example 4, preliminary data): 10 to 24 h; plasma levels ([1]; Example 4, preliminary data): > 1 ng/mL; MTD ([1]; Example 11): 4500 mcg/m^2/wk; recommended dose for future trials ([1]; Example 11, central vein catheter): 3750 mcg/m^2/wk×3; MTD ([1]; Example 12): 4500 mcg/m^2/week×3; haematological toxicity ([1]; Example 12): No haematological toxicity; recommended dose for future trials ([1]; Example 12): 3750 mcg/m^2/week×3; maintained plasma levels ([1]; doses ≧3000 mcg/m^2): > 1 ng/mL; Blood cell accumulation as compared to plasma ([1]; in vivo): 2-8 fold; dose from which potentially active plasma levels are reached ([1]; in vivo): ≥ 2000 mcg/m^2; coefficient of variation of clearance (Cl) ([1]; interpatient variability): 45%; Vss ([1]; median (quartiles)): 611 L and 611 (434-733) L; clearance (Cl) ([1]; median (quartiles)): 0.47 L/min and 0.47 (0.40-0.56) L/min; elimination t ½ ([1]; median (quartiles)): 18.8 h and 18.8 (15.3-25.4) h; elimination half lives [2]: 10 to 24 h; volume of distribution [2]: > 200 L/m^2; cell cycle pertubations [3]: did not induce any apparent cell cycle pertubations; initial phase median half-life [4, 9]: 2.4 min; intermediate phase median half-life [4, 9]: 1.4 h; terminal phase median half-life [4, 9]: 20.7 h; Hypertension G3 (worst toxicity per patient) ([4]; 133 mcg/m^2/wk x3, 3 patients): (1); Transaminitis G2 (worst toxicity per patient) ([4]; 133 mcg/m^2/wk x3, 3 patients): 1; Alk. Phos. G3 (worst toxicity per patient) ([4]; 266 mcg/m^2/wk x3, 3 patients): (1); Injection site reaction G2 (worst toxicity per patient) ([4]; 266 mcg/m^2/wk x3, 3 patients): 1; Asthenia G2 (worst toxicity per patient) ([4]; 532 mcg/m^2/wk x3, 3 patients): 1; Transaminitis G3 (worst toxicity per patient) ([4]; 532 mcg/m^2/wk x3, 3 patients): (1); Asthenia G2 (worst toxicity per patient) ([4]; 800 mcg/m^2/wk x3, 3 patients): 1(1); Asthenia G3 (worst toxicity per patient) ([4]; 800 mcg/m^2/wk x3, 3 patients): 1(1); CPK elevation G1 (worst toxicity per patient) ([4]; 800 mcg/m^2/wk x3, 3 patients): 1; Hypertension G1 (worst toxicity per patient) ([4]; 800 mcg/m^2/wk x3, 3 patients): 1; Injection site reaction G2 (worst toxicity per patient) ([4]; 800 mcg/m^2/wk x3, 3 patients): 1; Nausea/vomiting G2 (worst toxicity per patient) ([4]; 800 mcg/m^2/wk x3, 3 patients): 3; Transaminitis G2 (worst toxicity per patient) ([4]; 800 mcg/m^2/wk x3, 3 patients): 1; Asthenia G2 (worst toxicity per patient) ([4]; 1200 mcg/m^2/wk x3, 4 patients): 3; Injection site reaction G2 (worst toxicity per patient) ([4]; 1200 mcg/m^2/wk x3, 4 patients): 1; Myalgia G3 (worst toxicity per patient) ([4]; 1200 mcg/m^2/wk x3, 4 patients): (1); Alk. Phos. G2 (worst toxicity per patient) ([4]; 1800 mcg/m^2/wk x3, 4 patients): 1; Asthenia G2 (worst toxicity per patient) ([4]; 1800 mcg/m^2/wk x3, 4 patients): 2; Injection site reaction G2 (worst toxicity per patient) ([4]; 1800 mcg/m^2/wk x3, 4 patients): 1; Nausea/vomiting G2 (worst toxicity per patient) ([4]; 1800 mcg/m^2/wk x3, 4 patients): 3; Transaminitis G2 (worst toxicity per patient) ([4]; 1800 mcg/m^2/wk x3, 4 patients): 1; G3 hiperbilirrubinemia (dose limiting) ([4]; 2700 mcg/m^2/wk (4 pts)): 1; Asthenia G2 (worst toxicity per patient) ([4]; 2700 mcg/m^2/wk x3, 8 patients): 1(1); Asthenia G3 (worst toxicity per patient) ([4]; 2700 mcg/m^2/wk x3, 8 patients): 1(1); Injection site reaction G2 (worst toxicity per patient) ([4]; 2700 mcg/m^2/wk x3, 8 patients): 3; Nausea/vomiting G2 (worst toxicity per patient) ([4]; 2700 mcg/m^2/wk x3, 8 patients): 2; Transaminitis G2 (worst toxicity per patient) ([4]; 2700 mcg/m^2/wk x3, 8 patients): 1; Bilirrubin G3 (worst toxicity per patient) ([4]; 2700 mcg/m^2/wk x3, 8 patients, footnote DLT): 1(1)^(2); CPK elevation G1 (worst toxicity per patient) ([4]; 3600 mcg/m^2/wk x3, 2 patients): 1; clinically feasible dose ([4]; 1 hour infusion weekly with one week rest): ≤ 3600 mcg/m^2 every week; haematological tox ([4]; Example 13, 102 infusions): No haematological tox; CL ([4]; Example 13, median): 0.60; m Vss ([4]; Example 13, median): 308 L/m^2; m elimination half life ([4]; Example 13, median): 14.2 h; Bone marrow toxicity ([4]; Example 17): has not been reported; coefficient of variation of CL ([4]; Example 17, interpatient): 33%; Vss ([4]; Example 17, median (quartiles)): 345 (220-398) L/m^2; t ½ ([4]; Example 17, median (quartiles)): 15.8 (13.3-19.5) h; plasma CL ([4]; Example 17, median, quartiles 288-407): 329 mL/min/m^2; dose from which potentially therapeutic plasma levels are achievable ([4]; in vivo): ≥ 1200 μg/m^2; Plasma levels 24 hours after infusion ([4]; reachable from 1800 mcg/m^2/wk): > 1 ng/mL
